Where “and” joins values, the source holds several entries; their conditions need not be identical. Identical values can stand only once.
Biological target: T1, DrOTOP1 M133W (Danio rerio, UniProt Q7ZWK8, M133W)
T1 construct: A previously generated codon-optimized full-length DrOTOP1[8]; (UniProt: Q7ZWK8) construct; expressed in transfected cells; host or cells: HEK-293 (CRL-1573, ATCC)
T1 sequence (Q7ZWK8 1-586 M133W): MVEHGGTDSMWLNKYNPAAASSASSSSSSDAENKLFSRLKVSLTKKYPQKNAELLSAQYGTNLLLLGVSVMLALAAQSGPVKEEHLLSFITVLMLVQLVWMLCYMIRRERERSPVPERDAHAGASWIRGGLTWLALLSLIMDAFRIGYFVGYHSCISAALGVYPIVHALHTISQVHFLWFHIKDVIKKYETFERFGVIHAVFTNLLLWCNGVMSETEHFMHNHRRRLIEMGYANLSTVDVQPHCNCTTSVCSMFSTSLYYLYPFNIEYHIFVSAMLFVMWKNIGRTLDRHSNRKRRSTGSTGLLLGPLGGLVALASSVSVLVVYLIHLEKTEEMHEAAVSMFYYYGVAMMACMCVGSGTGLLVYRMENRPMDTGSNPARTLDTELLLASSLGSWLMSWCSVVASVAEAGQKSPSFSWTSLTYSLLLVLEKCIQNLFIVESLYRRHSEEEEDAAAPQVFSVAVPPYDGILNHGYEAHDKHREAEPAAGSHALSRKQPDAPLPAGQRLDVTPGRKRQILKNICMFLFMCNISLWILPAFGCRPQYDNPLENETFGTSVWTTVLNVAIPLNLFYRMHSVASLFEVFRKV
Test: Whole-cell patch-clamp, inhibition of acid-evoked currents, DrOTOP1 M133W
Type: cell-based, zebrafish (Danio rerio)
Excerpt: To functionally test the significance of the two binding sites identified by cryo-EM, we generated point mutations of DrOTOP1 using the binding poses and conformational changes observed in DrOTOP1_C2.2 to guide our mutations. As per the binding pose that best fits our cryo-EM density, C2.2 forms the following interactions in the outer site: hydrophobic packing against many non-polar residues W126, G130, M133, L134, F271, F570, and M573, and π-stacking with W532 (Fig. 5A). In addition, C2.2 could potentially form H-bonds with E267, if the sidechain is protonated or a water bridge is present, and with H574 if it moves closer (Fig. 5A). Likewise, C2.36 presents a heterocyclic nitrogen that can potentially form a H-bond with E267, similarly, provided a protonation or water bridge is present (Fig. 5B). In addition, C2.36 forms a T-shaped π-stacking interaction with H574, whose sidechain has rotated 90 degrees (compared to DrOTOP1_apo), presumably to accommodate the interaction (Fig. 5B). Considering other inhibitors discovered from the second round of screening, many contain functional groups like the carbonyl groups of Group 1 molecules and the heterocyclic nitrogen atoms of Group 2 molecules (Supplementary Fig. 3E), that can potentially form similar H-bonds with E267 as C2.2 and C2.36, assuming the binding modes are similar. In the central site, C2.2 binds with the following interactions: hydrophobic packing with residues V201, F271, A274, V278, and A388, π-stacking with F277, and H-bonding with E384 (Fig. 5C).
Each non-aromatic residue was mutated to tryptophan, which was expected to cause steric occlusion. […]
Whole-cell patch-clamp recording was performed as previously described[6],[22],[25]. Recordings were made with an Axopatch 200B amplifier, digitized with a Digidata 1322a 16-bit data acquisition system, acquired with pClamp 8.2 and analyzed with Clampfit 10 (Molecular Devices). […]

## C=C(C)COc1ccccc1NC(=O)c1nc[nH]c1C [C2.2]
10 µM, single cells or mean, mean
  Inhibition of currents: 71.39%
10 µM, single cells or mean, single cells
  Inhibition of currents: 74.2591% and 52.599% and 79.1509% and 79.3522% and 71.5803%

## O=C(/C(=N\O)c1ccccc1)c1ccccc1 [C11, benzil monoxime]
100 µM, single cells
  Inhibition of currents: 51.1084% and 50.3496% and 47.6418% and 59.4138% and 72.1088%
